This note sets out measurements from ChEMBL document CHEMBL5233260, “Diverse chemical space of indoleamine-2,3-dioxygenase 1 (Ido1) inhibitors” (Eur J Med Chem, 2021).

Values joined by “and” are separate entries in the source; they are usually repeats but may differ in a detail not shown here. Identical values can stand only once. Bounds are passed on as bounds.

In one test the target is T1, Indoleamine 2,3-dioxygenase 1 (Homo sapiens, UniProt P14902). The experiment in a line: Inhibition of IDO1 (unknown origin).
Target sequence in this assay (P14902 whole entry): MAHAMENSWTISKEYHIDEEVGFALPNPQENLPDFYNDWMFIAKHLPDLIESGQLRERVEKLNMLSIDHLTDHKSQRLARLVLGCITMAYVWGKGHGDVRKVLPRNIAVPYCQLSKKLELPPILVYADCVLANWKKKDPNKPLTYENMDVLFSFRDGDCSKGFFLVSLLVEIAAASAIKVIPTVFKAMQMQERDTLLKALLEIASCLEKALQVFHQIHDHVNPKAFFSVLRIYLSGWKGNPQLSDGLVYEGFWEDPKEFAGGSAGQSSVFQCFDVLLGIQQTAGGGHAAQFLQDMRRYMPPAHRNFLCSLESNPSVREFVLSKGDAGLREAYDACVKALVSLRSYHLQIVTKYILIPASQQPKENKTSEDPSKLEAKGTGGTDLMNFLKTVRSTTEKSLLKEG
With `COC1=CC(=O)c2c(O)c3c(c4c2[C@]12CC(=O)C[C@H]2[C@@]1(C[C@H](O)[C@H](O)CO1)O4)C[C@](C)(O)[C@H](O)C3`, inhibition was half-maximal at 32300 nM (IC50).
Regarding `COC1=C(OC)C(=O)C(CCC(C)C)=C(C)C1=O`, the IC50 – broadly, the concentration that gives 50% inhibition – stood at 2800 nM.
For `CS[C@@]1(C)C(=O)N2[C@H]3N(c4ccc5oc6cc(=O)c(N)c(C(=O)O)c-6nc5c4C(=O)O)c4ccccc4[C@@]3(c3c[nH]c4ccccc34)[C@H](O)[C@]2(SC)C(=O)N1C`, the IC50 came out at 2000 nM.
As to `COC1=C(OC)C(=O)C(Nc2ccccc2)=CC1=O`, the IC50 was determined as 600 nM.
Take `Nc1oc2cnccc2c1Nc1ccc(F)c(Cl)c1`: the IC50 was under 200 nM.
For `COC(=O)[C@H]1CCCN1C[C@@H](O)c1c(OC)cc2c(c1O)C(=O)c1cc(O)c(C)cc1C2=O`, the half-inhibitory concentration (IC50) was 500 nM.
Molecule `COC1=C(OC)C(=O)C(Nc2ccccc2)=C(C)C1=O` registered an IC50 of 700 nM.
In turn, `CNC(=O)[C@H]1[C@@H](OC)C2(O)c3ccccc3NC(=O)[C@@]2(C(=O)N[C@@H](CCC(=O)OC)C(=O)C=C(C)C)N1C` (some centres not stated) had an IC50 of 10100 nM.
Still for that read-out and setting: in the case of `O=C(Cc1ccccc1)Nc1ccc(CCOc2ccccc2-c2cnc[nH]2)cc1` it was under 1000 nM.
The same measure, in the same setting: as for `Brc1cc(Nc2ccc3nonc3c2)c2cn[nH]c2c1`, the figure is 74000 nM.
The same measure, in the same setting: in the case of `CCc1c(OC)cc2c(c1O)C(=O)C[C@@H](OC)[C@@H]2O` it was 6360 nM.
`C=C1CC[C@@H]2[C@](C)(CO)[C@H](O)CC[C@@]2(C)[C@@H]1C/C=C1/C(=O)OC[C@H]1O` [ANDROGRAPHOLIDE]: the 50% inhibitory concentration (IC50) is 160000 nM.
`COC1=C(OC)C(=O)C(Nc2ccc(Cl)cc2)=CC1=O` registered an IC50 of 270 nM.
On the same count and under the same terms, as for `COC1=C(OC)C(=O)C(Nc2cccc(NC(=O)Nc3ccccc3)c2)=C(C)C1=O`, the figure is 400 nM.
On the same count and under the same terms, in the case of `COc1c(C(C)=O)c(C)cc2cc3c(c(O)c12)C(=O)C(C)(C)C(=O)C3(C)C` it was 1180 nM.

The target of the next test is T1, Indoleamine 2,3-dioxygenase 1. The experiment in a line: Binding affinity to IDO1 (unknown origin) assessed as inhibition constant.
Target sequence in this assay (P14902 whole entry): as above
With `NC(Cc1csc2ccccc12)C(=O)O` (configuration not stated), the Ki (in general, a measure of affinity in units of concentration, obtained from inhibition or displacement) came out at 7000 nM.
For `CCc1c(C)cc2c(c1O)C(=O)C1=C(C2=O)C(C)(C)OC1(O)C(=O)OC` (configuration not stated), the inhibitory constant (Ki) worked out at 210 nM.
Still for that read-out and setting: as for `CC12CCCc3coc(c31)C(=O)c1cc3c(cc12)C(=O)C1C(NCCS1(=O)=O)C3=O` (configuration not stated), the figure is 25 nM; as for `COC(=O)/C1=C/c2c([nH]c3ccccc23)/C(C(=O)OC)=C\c2c1[nH]c1ccccc21` [CAULERPIN], 2000 nM.
Regarding `CCc1cc2c(cc1C)C(=O)C1=C(C2=O)C(OC)(C(=O)OC)OC1(C)C` (configuration not stated), the Ki was 140 nM.
As for `CC12CCCc3coc(c31)C(=O)c1cc3c(cc12)C(=O)C1NCCS(=O)(=O)C1C3=O` (configuration not stated), the inhibition constant (Ki) came to 86 nM.
As for `NC(Cc1coc2ccccc12)C(=O)O` (configuration not stated), the Ki turned out to be 70000 nM.

For the next test the target is unchanged. Kind of test: Inhibition of IDO1 (unknown origin) at 1 mM relative to control.
Target sequence in this assay (P14902 whole entry, looked up): as the sequence (P14902 whole entry) above
For the molecule `O=C(O)C[C@H]1CNC(=O)c2cc(Br)c(Br)n21`, the inhibition (as a rule, the drop in the measured response relative to a control, in per cent) worked out at 30%.

For another test the target is unchanged. The experiment in a line: Inhibition of human IDO1 incubated for 30 mins by microplate reader based analysis.
Target sequence in this assay (P14902 whole entry): as above
In the case of `COc1cc(O)c2c(c1)C(=O)C1=C(C2=O)[C@@H](C)O[C@@H](C)C1`, half-maximal inhibition (IC50) was put at 5000 nM.

A further test has the same target. The experiment in a line: Inhibition of human recombinant IDO1 using L-tryptophan as substrate incubated for 10 mins by absorbance based analysis.
Target sequence in this assay (P14902 whole entry): as above
For `COc1nsc2c1C(=O)c1c(O)cccc1C2=O`, the IC50 is 71 nM.

The next test has the same target. Kind of test: Inhibition of IDO1 in human A549 cells by ELISA assay. It counts as cell-based. A general note: An ELISA detects its analyte on a solid surface through an enzyme-linked reagent.
Target sequence in this assay (P14902 whole entry): as above
In turn, `CC(=O)NCCc1c(C(=O)c2ccccc2[N+](=O)[O-])[nH]c2ccc(Cl)cc12` showed an IC50 of 740 nM.

A further test has the same target. The experiment in a line: Inhibition of human IDO1 using L-tryptophan as substrate incubated for 1 hr by absorbance based analysis.
Target sequence in this assay (P14902 whole entry): as above
`O=C(NC(c1cccc(Br)c1)n1ccnc1)c1ccc([N+](=O)[O-])cc1` (configuration not stated) gave an IC50 of 810 nM.

The next test shares this target. Kind of test: Inhibition of human IDO1 using L-tryptophan as substrate by methylene blue dye based spectrometric method.
Regarding `O=C(NNc1ccccc1)c1n[nH]c2ccccc12`, the IC50 was determined as 720 nM.
Same read-out and setting: in the case of `Clc1ccc(-c2n[nH]c3ccccc23)cc1Cl` it was 5460 nM; in that of `c1cncc(-c2n[nH]c3ccccc23)c1`, 9520 nM; in that of `Cc1ccc(S(=O)(=O)NNC(=O)c2n[nH]c3ccccc23)cc1`, 17000 nM.
Regarding `c1ccc(-c2[nH]nc3ccccc23)cc1`, half-maximal inhibition (IC50) required 19600 nM.

For another test the target is unchanged. The experiment in a line: Inhibition of IDO1 (unknown origin) at 10 uM relative to control.
Target sequence in this assay (P14902 whole entry, looked up): as the sequence (P14902 whole entry) above
Molecule `O[C@H]1CCCC[C@@H]1CNc1cc(Br)cc2[nH]ncc12` showed an inhibition of over 70%.

The target of the next test is T2, Indoleamine 2,3-dioxygenase 1 (Mus musculus, UniProt P28776). Kind of test: Inhibition of mouse IDO1 using L-tryptophan as substrate by methylene blue dye based analysis.
T2 sequence (P28776 whole entry): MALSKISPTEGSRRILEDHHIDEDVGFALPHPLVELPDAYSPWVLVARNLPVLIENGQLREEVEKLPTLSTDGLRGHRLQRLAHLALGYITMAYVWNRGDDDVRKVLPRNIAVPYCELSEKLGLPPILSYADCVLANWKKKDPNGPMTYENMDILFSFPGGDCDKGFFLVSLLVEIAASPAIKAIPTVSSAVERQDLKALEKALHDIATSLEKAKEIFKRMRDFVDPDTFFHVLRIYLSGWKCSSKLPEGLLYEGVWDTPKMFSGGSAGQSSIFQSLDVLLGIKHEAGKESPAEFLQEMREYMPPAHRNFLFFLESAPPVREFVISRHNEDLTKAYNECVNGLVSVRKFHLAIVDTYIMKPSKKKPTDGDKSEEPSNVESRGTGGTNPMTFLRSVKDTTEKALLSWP
For `Clc1ccc(Nc2ccc3c[n+]4ccccc4cc3c2)cc1`, the half-inhibitory concentration (IC50) is 510 nM.
Take `c1ccc(Nc2ccc3c[n+]4ccccc4cc3c2)cc1`: half-maximal inhibition (IC50) was put at 560 nM.
Still for that read-out and setting: in the case of `Fc1ccc(Nc2ccc3c[n+]4ccccc4cc3c2)cc1` it was 530 nM.
On the same count and under the same terms, in the case of `Cc1ccc(Nc2ccc3c[n+]4ccccc4cc3c2)cc1` it was 17000 nM; in that of `COc1ccc(Nc2ccc3c[n+]4ccccc4cc3c2)cc1`, over 66000 nM.
On the same count and under the same terms, as for `CN(C)c1ccc(Nc2ccc3c[n+]4ccccc4cc3c2)cc1`, the figure is over 50000 nM; as for `Clc1cccc(Nc2ccc3c[n+]4ccccc4cc3c2)c1`, 39600 nM.

Another test has as its target T1, Indoleamine 2,3-dioxygenase 1. The experiment in a line: Inhibition of IDO1 in human HeLa cells. It counts as cell-based.
For `N#Cc1ccc(NC(=O)Nc2ccc(S(=O)(=O)NNc3ccc(Br)cc3)cc2)cc1`, the response was half-maximal at 51 nM (EC50).

For another test the target is unchanged. The experiment in a line: Inhibition of human IDO1.
Regarding `N#Cc1ccc(NC(=O)Nc2ccc(S(=O)(=O)NNc3ccc(Br)cc3)cc2)cc1`, 199 nM corresponded to half-maximal inhibition (IC50).

A further test has the same target. The experiment in a line: Inhibition of human IDO1 expressed in Escherichia coli using L-tryptophan as substrate incubated for 30 mins by methylene blue dye based microplate reader analysis.
In turn, `COC(=O)c1c(C)oc2c1C(=O)C(OC)=CC2=O` came in with a half-inhibitory concentration (IC50) of 7200 nM.
Still for that read-out and setting: as for `COC1=CC(=O)c2c(nc(COc3ccc([N+](=O)[O-])cc3)n2C)C1=O`, the figure is 100 nM; as for `COC1=CC(=O)c2c(c(CO)nn2C)C1=O`, 1000 nM; as for `COC1=CC(=O)c2c(c(CO)c(C)n2C)C1=O`, 10000 nM.
As for `COC1=CC(=O)c2c(oc(C)c2CO)C1=O`, the 50% inhibitory concentration (IC50) was 500 nM.
Still for that read-out and setting: as for `COC1=CC(=O)c2sc(C)c(CO)c2C1=O`, the figure is 1000 nM.

For another test the target is unchanged. Kind of test: Inhibition of IDO1 (unknown origin) at 1 uM relative to control.
Target sequence in this assay (P14902 whole entry, looked up): as the sequence (P14902 whole entry) above
In turn, `N#Cc1ccc(Cc2cn(Cc3cnc4scc(-c5ccc(Br)cc5)n34)nn2)cc1` registered an inhibition of 75%.
Consider `O=C(NCc1cnc2scc(-c3ccc(Br)cc3)n12)n1cc(C2CC2)nn1`, for which the inhibition is 70%.

The next test has the same target. Kind of test: Inhibition of IDO1 in HEK293 cells at 20 uM incubated for 24 hrs by LC-MS/MS analysis relative to control. It is filed as cell-based.
Target sequence in this assay (P14902 whole entry, looked up): as the sequence (P14902 whole entry) above
Turning to `O/N=C(\Nc1ccc(F)c(Br)c1)c1cccc2cn[nH]c12`, the inhibition turned out to be 80%.

The target is the same in another test. The experiment in a line: Inhibition of human recombinant N-terminal his6-tagged IDO1 expressed in Escherichia coli BL21 using L-tryptophan as substrate incubated for 1 hr by methylene blue dye based UV-Vis spectrophotometer analysis.
Take `NS(=O)(=O)NCCNC(=O)c1n[nH]nc1/C(=N/O)Nc1ccc(F)c(Br)c1`: the 50% inhibitory concentration (IC50) is 92 nM and 28 nM.

For the next test the target is unchanged. Kind of test: Inhibition of IDO1 in human MDA-MB-231 cells. It counts as cell-based.
The molecule `NS(=O)(=O)NCCNC(=O)c1n[nH]nc1/C(=N/O)Nc1ccc(F)c(Br)c1` displayed an IC50 of 28 nM.

Another test concerns the target T2, Indoleamine 2,3-dioxygenase 1. The experiment in a line: Inhibition of IDO1 in mouse LLTC cell line. It counts as cell-based.
`COc1cccc2c1C(=O)C1=C(C[C@H](Cn3cc(-c4ccccc4)nn3)O[C@@H]1C)C2=O` displayed a half-inhibitory concentration (IC50) of 6000 nM.
Same read-out and setting: as for `COc1ccc2c(c1)C(=O)C1=C(C2=O)[C@@H](C)O[C@@H](CC(=O)O)C1`, the figure is 800 nM.

The next test deals with T1, Indoleamine 2,3-dioxygenase 1. Kind of test: Inhibition of IDO1 in human HeLa cells assessed as inhibition of kynurenine production incubated for 30 mins by microplate reader based analysis. It counts as cell-based.
`Cc1cc(Cl)nc2onc(N)c12`: the IC50 was under 1000 nM.
As to `CCN(c1ncc(C2(C(=O)O)CCC2)cc1Nc1ccc(Cl)cc1)C1CCOCC1`, the concentration for half-maximal inhibition (IC50) came out at 100 nM.
